According to article PMC11001683 (European Journal of Clinical Pharmacology, 2024):

What was measured:
[1] = ACD855 mutagenic/genotoxic potential
Protocol: (§1) The clinical efficacy, safety, and pharmacokinetics (PK) of ACD855 have been evaluated in various domestic animals for the use as a veterinary drug. […] Based on pharmacology studies in rodents and safety studies in rat and dog, the first oral dose in an initiated Phase I single ascending dose (SAD) study (EudraCT No. 2018-002320-16), in healthy volunteers was set to 1 mg. […] The study was prematurely terminated after interim PK analysis of the first cohort, and long-term follow-up of the dosed subjects was performed.

[2] = ACD855 Phase I SAD study, cohort 1, plasma pharmacokinetics; assay type: in vivo; conditions: human, 1 mg oral
Protocol: as §1

[3] = ACD855 clinical signs in dogs; assay type: in vivo
[4] = design: method as in PMID 37394539; conditions: cited from earlier work
[5] = Allometric scaling prediction of ACD855 elimination half-life in man; design: species or system human
Protocol: as §1

[6] = mice; cited from earlier work

concentration at 280 days ([2]; all subjects but one, detection limit 1 ng/mL, read-out: plasma level at 280 days): > 1 ng/mL | half-life ([2]; cohort 1, healthy volunteers, read-out: elimination half-life in plasma in humans, average (converted)): 68 days | notable clinical signs in dogs [3]: gastrointestinal disturbance | predicted elimination half-life in man [5]: 4.6 days
SMILES: Cc1cc(-n2c(=O)[nH]c(=O)n(C)c2=O)ccc1Oc1ccc(S(=O)(=O)C(F)(F)F)cc1 [ACD855, Ponazuril]
mutagenic or genotoxic potential [1]: no indication of any mutagenic or genotoxic potential | effect in the forced swim test model [4]: anti-depressant-like effects | effect in preclinical in vivo cognition models [6]: pro-cognitive effects
